pEC50, pIC50: −log10 of the molar value. Values joined by “and” are separate entries in the source; they are usually repeats but may differ in a detail not shown here. Equal entries are not always repeated. Where two headings read alike, the source gives them in different places.
Assays:
MES-SA = assay: OncoPanel cell proliferation assay, MES-SA; type: cell-based, human
Description: (§1) Cells were grown in RPMI 1640, 10% FBS, 2 mM L-alanyl-L-glutamine, 1 mM Na pyruvate, or a special medium. Cells were seeded into 384-well plates and incubated in a humidified atmosphere of 5% CO2 at 37° C. Compounds were added the day following cell seeding. At the same time, a time zero untreated cell plate was generated. After a 3-day incubation period, cells were fixed and stained to allow fluorescence imaging of nuclei. Compounds (1 mM stock solutions) were serially diluted in half-log steps from the highest test concentration ([…]), and assayed over 10 concentrations with a maximum assay concentration of 0.1% DMSO. Automated fluorescence microscopy was carried out using a Molecular Devices ImageXpress Micro XL high-content imager, and images were collected with a 4× objective. 16-bit TIFF images were acquired and analyzed with MetaXpress 5.1.0.41 software.
(§2) Cell proliferation was measured by the fluorescence intensity of an incorporated nuclear dye. The output is referred to as the relative cell count, where the measured nuclear intensity is transformed to percent of control (POC) using the following formula: […]
(§3) Cellular response parameters were calculated using nonlinear regression to a sigmoidal single-site dose response model:
(§4) Where y is a response measured at concentration x, A and B are the lower and upper limits of the response, C is the concentration at the response midpoint (EC50), and D is the Hill Slope (Ref. 1).
(§5) EC50 is the test compound concentration at the curve inflection point or half the effective response (parameter C of the fitted curve solution). GI50 is the concentration needed to reduce the observed growth by half (midway between the curve maximum and the time zero value). “Cell Count Activity Area” is an estimate of the integrated area above the curve (Barretina, et al. The Cancer Cell Line Encyclopedia enables predictive modelling of anticancer drug sensitivity. Nature 483: 603-607). […] In rare instances, values <0 or >10 may be observed. […] Curve-fitting, calculations, and report generation was performed using a custom data reduction engine and MathIQ based software (AIM).

U-138MG = assay: OncoPanel cell proliferation assay, U-138MG; type: cell-based, human
Description: as §1, §2, §3, §4, §5

U2OS = assay: OncoPanel cell proliferation assay, U2OS; type: cell-based, human
Description: as §1, with “Cells” for “Cells were grown in RPMI 1640, 10% FBS, 2 mM L-alanyl-L-glutamine, 1 mM Na pyruvate, or a special medium. Cells”
as §2, §3, §4
GI50 is the concentration needed to reduce the observed growth by half (midway between the curve maximum and the time zero value). […] In rare instances, values <0 or >10 may be observed. […] Curve-fitting, calculations, and report generation was performed using a custom data reduction engine and MathIQ based software (AIM).

[1] = Whole blood concentrations in mice after IP dosing (LC-MS/MS); type: in vivo; conditions: 2 mg/kg IP QD x 3 days; Day 1, 1.00 hrs
Description: These determinations were made using protein precipitation, liquid chromatography (LC), and mass spectrometry (MS/MS). Ten μl aliquots of whole blood and matrix calibration standards were distributed in a 96-well plate; 10 μl aliquots of blank matrix for matrix blanks and control blanks were included as controls. Ten μl of water was added to each sample followed by vortexing. One hundred sixty […] of internal standard was added to each sample except the matrix blanks; 160 μl 70:30 water:acetonitrile (ACN) was added to matrix blanks. This was followed by a […]. One hundred fifty μl of the resultant supernatant was then transferred to a new 96-well plate and the samples blown to dryness at 35° C. The resultant product was then reconstituted with 90 μl ACN.

[2] = Homo sapiens, 72 h, 3-day incubation, read-out: Cell Count EC50
[3] = Homo sapiens, 72 h, 3-day incubation, read-out: Cell Count GI50
[4] = Homo sapiens, 72 h, 3-day incubation, read-out: Cell Count IC50

CO[C@H]1C[C@@H]2CC[C@@H](C)[C@@](O)(O2)C(=O)C(=O)N2CCCC[C@H]2C(=O)O[C@H]([C@H](C)C[C@@H]2C[C@@H]3C[C@H]2C[C@H]3O)CC(=O)[C@H](C)/C=C(\C)[C@@H](O)[C@@H](OC)C(=O)[C@H](C)C[C@H](C)/C=C/C=C/C=C/1C [Formula I, 37R-hydroxynorbornylrapamycin]
Relative cell count (%) Mean (MES-SA; 1.00E+00 microM): 27.9%
Relative cell count (%) Mean (MES-SA; 1.00E−01 microM): 28.9%
Relative cell count (%) Mean (MES-SA; 1.00E−02 microM): 32.0%
Relative cell count (%) Mean (MES-SA; 1.00E−03 microM): 45.0%
Relative cell count (%) Mean (MES-SA; 1.01E−04 microM): 93.8%
Relative cell count (%) Mean (MES-SA; 3.16E−01 microM): 26.8%
Relative cell count (%) Mean (MES-SA; 3.17E−02 microM): 28.6%
Relative cell count (%) Mean (MES-SA; 3.17E−03 microM): 37.3%
Relative cell count (%) Mean (MES-SA; 3.18E−04 microM): 64.3%
Relative cell count (%) Mean (MES-SA; 3.18E−05 microM): 98.1%
pEC50 (MES-SA; [2]): 9.49
GI50 (MES-SA; [3]): 0.495 nM
pIC50 (MES-SA; [4]): 9.19
Cell Count Activity Area (MES-SA; scale 0-10): 5.42
pEC50 (U-138MG; Homo sapiens, U138-MG, 72 h, U-138MG, 3-day incubation, read-out: Cell Count EC50): 10.01
GI50 (U-138MG; Homo sapiens, U138-MG, 72 h, U-138MG, 3-day incubation, read-out: Cell Count GI50): 0.54 nM
pIC50 (U-138MG; Homo sapiens, U138-MG, 72 h, U-138MG, 3-day incubation, read-out: Cell Count IC50): < 6.00
pEC50 (U-138MG; Homo sapiens, U138-MG, Table 4 summary, U-138 MG, Glioblastoma, read-out: EC50): 10.01
Cell Count Activity Area (U-138MG; U-138MG, scale 0-10): 3.00
Relative cell count (%) Mean (U-138MG; U-138MG, 1.00E+00 microM): 62.8%
Relative cell count (%) Mean (U-138MG; U-138MG, 1.00E−01 microM): 66.3%
Relative cell count (%) Mean (U-138MG; U-138MG, 1.00E−02 microM): 71.3%
Relative cell count (%) Mean (U-138MG; U-138MG, 1.00E−03 microM): 70.6%
Relative cell count (%) Mean (U-138MG; U-138MG, 1.01E−04 microM): 82.1%
Relative cell count (%) Mean (U-138MG; U-138MG, 3.16E−01 microM): 64.5%
Relative cell count (%) Mean (U-138MG; U-138MG, 3.17E−02 microM): 66.8%
Relative cell count (%) Mean (U-138MG; U-138MG, 3.17E−03 microM): 70.9%
Relative cell count (%) Mean (U-138MG; U-138MG, 3.18E−04 microM): 75.7%
Relative cell count (%) Mean (U-138MG; U-138MG, 3.18E−05 microM): 98.2%
Relative cell count (%) Mean (U2OS; 1.00E+00 microM): 50.8%
Relative cell count (%) Mean (U2OS; 1.00E−01 microM): 48.5%
Relative cell count (%) Mean (U2OS; 1.00E−02 microM): 51.4%
Relative cell count (%) Mean (U2OS; 1.00E−03 microM): 69.9%
Relative cell count (%) Mean (U2OS; 1.01E−04 microM): 86.1%
Relative cell count (%) Mean (U2OS; 3.16E−01 microM): 43.2%
Relative cell count (%) Mean (U2OS; 3.17E−02 microM): 47.8%
Relative cell count (%) Mean (U2OS; 3.17E−03 microM): 62.6%
Relative cell count (%) Mean (U2OS; 3.18E−04 microM): 75.4%
Relative cell count (%) Mean (U2OS; 3.18E−05 microM): 95.3%
pEC50 (U2OS; [2]): 9.40
GI50 (U2OS; [3]): 2.76 nM
pIC50 (U2OS; [4]): 7.92
Cell Count Activity Area (U2OS; scale 0-10): 4.05
Concentration in Mouse Whole Blood, Mean [1]: 529 ng/mL
Concentration in Mouse Whole Blood, individual animals 1-3 [1]: 519 ng/mL and 530 ng/mL and 537 ng/mL

— US20210024542A1 (Torcept Therapeutics, Inc., priority 2018, published 2021)
